Test results from patent US11311646B2, “Therapeutic material” (ASTON UNIVERSITY, priority 2016, dated 2022).

Legend:
[1] = test system: Human osteoblasts (NHOst); assay: MTT viability assay, NHOst; type: cell-based; settings: 10 nm etoposide, 72 hours
Protocol: Human osteoblasts (NHOst) were purchased from Lonza and cultured in Clonetics OGM Osteoblast growth media supplemented with 10% FBS, 1% L-glutamine and 1% penicillin, streptomycin. Both cell lines were maintained at 37° C. in a humidified atmosphere of 5% CO2/95% air.
(§1) Stock solutions of conditioned media were prepared by dissolving glass particles (from Example 1-3) in complete McCoy's 5A medium to treat Saos-2 cells and Clonetics OGM Osteoblast complete growth media to treat osteoblasts.
(§2) Stock solutions were prepared at a concentration of 10 mg/ml and left to incubate in a shaker incubator at 250 rpm at 37° C. for 24 hours. Following the 24 hour incubation period, stock solutions were filtered using 0.2 micron syringe filter. 3 ml samples were excluded to record stock solution pH values following glass dissolution.
(§3) Cell cytotoxicity was analysed using MTT viability assay (Thermo Fisher), where 5000 cells per well of both Saos-2 and NHOst cells were cultured using conditioned media containing 10 mg/ml respective glass compositions (Examples 1-3), for a period of 72 hours. […] Metabolically active cells reduce MTT to formazan and after formazan extraction the optical density was measured using a spectrophotometer (at 570 nm). […]

[2] = test system: Human osteosarcoma (Saos-2) cells; assay: MTT viability assay, Saos-2; type: cell-based; settings: 10 nm etoposide, 72 hours
Protocol: Human osteosarcoma (Saos-2) cells were purchased from the American Tissue Culture Collection and maintained in McCoy's 5A medium containing 1.5 mM L-glutamine and 2200 mg/L sodium bicarbonate. Media was supplemented with 1% penicillin, streptomycin and 15% foetal bovine serum (FBS).
as §1, §2, §3

## COc1cc([C@@H]2c3cc4c(cc3[C@@H](O[C@@H]3O[C@@H]5CO[C@@H](C)O[C@H]5[C@H](O)[C@H]3O)[C@H]3COC(=O)[C@H]23)OCO4)cc(OC)c1O [etoposide, Etoposide]
[1]
  NHOst cell death, positive control: inducer of cell death (p<0.0001)
[2]
  Saos-2 cell death, positive control: inducer of cell death (p<0.0001)
